Consider two molecules from patent publication US12121521B2, “Uses of salt-inducible kinase (SIK) inhibitors for treating osteoporosis” (The General Hospital Corporation, priority 2016, dated 2024).

Molecules are shown by their SMILES.

One assay deals with male mice. The assay can be described thus: Acute YKL-05-099 administration: bone gene expression. The format is in vivo, mouse. The note with it: single I.P. dose 20 μmol/kg, 2 hours. On the procedure:
Whole cell extracts were generated, followed by immunoblotting. […] RNA was prepared, and gene expression analyzed by RT-qPCR. […] 2 hours later, animals were sacrificed, RNA was prepared from femurs, and gene expression analyzed by RT-qPCR. […] Animals were sacrificed 2 hours after the final dose, and RNA from femurs analyzed for the indicated genes. BGLAP encodes osteocalcin. * indicated p<0.01 versus vehicle, # indicates p<0.05 versus vehicle. (FIGS. 8E to 8K), static and dynamic histomorphometry were performed on the tibia from the same mice as in FIG. 8D. Each data point represents an individual mouse, p values for each difference are shown on the graph. (FIG. 8L) Representative photomicrograph showing increased osteoblasts on cancellous bone surfaces from YKL-05-099-treated mice.
All animals were housed in the Center for Comparative Medicine at the Massachusetts General Hospital, and all experiments were approved by the hospital's Subcommittee on Research Animal Care. HDAC5-null mice (70) and HDAC4 f/f mice (71) were generously provided by Dr. Eric Olson (University of Texas Southwestern Medical Center, Dallas, TX) and were backcrossed to C57B/6 mice for at least 6 generations. […] In all instances, skeletal phenotypes were evaluated in 8 week-old sex-matched littermates. […]

Another assay deals with Ocy454 cells. Nature of the assay: Gene expression in Ocy454 cells by RT-qPCR. It is filed as cell-based, mouse. The note with it: 0.5 μM, 3.5 hours; FIG. 21. The method, then: In FIG. 21, Ocy454 cells (osteocyte cell line, also known at 6-9 cells) were cultured at 37° C. for 2 weeks to permit osteocyte differentiation. The cells were then treated with the indicated compound (0.5 μM) for 3.5 hours, and gene expression was analyzed by RT-qPCR. SOST expression was reduced by the indicated compounds. RANKL expression was increased by the indicated compounds. […] Therefore, these changes in gene expression may be due to on-target effects of the indicated compound.
For all experiments, a single cell subclone of Ocy454 cells (17, 18) was used. Cells were passages in alpha-MEM supplemented with 10% heat-inactivated fetal bovine serum and 1% antibiotics (penicillin/streptomycin, Fungizone) at 33° C. with 5% CO2. Cells were plated at 50,000 cells/ml and allowed to reach confluency at 33° C. (typically in 2-3 days). At this point, cells were transferred to 37° C. for subsequent analysis. For immunoblotting, cells were always analyzed after culture at 37° C. for 7 days. For gene expression analysis, cells were analyzed after culture at 37° C. for 14 days. Mycoplasma contamination was ruled out by PCR. Cells were routinely assayed for SOST expression at 37° C. and examined for osteocytic morphology.
Total RNA was extracted from cultured cells using RNeasy (Qiagen, Venlo, Netherlands) following the manufacturer's instructions. For long bone RNA isolation, mice were sacrificed and both femurs were rapidly dissected on ice. Soft tissue was removed and epiphyses cut. Bone marrow cells were then removed by serial flushing with ice-cold PBS. TRIzol (Life Technologies) was added and sampled were frozen at −80C and then homogenized. RNA was then extracted per the manufacturer's instructions, and further purified on RNeasy microcolumns prior to cDNA synthesis. RNA with A260/280 ratio <1.7 was not used for downstream analysis. For cDNA synthesis, 1 μg RNA was used in synthesis reactions according to the instructions of the manufacturer (Primescript RT, Takara). SYBR Green-based qPCR detection was performed using FastStart Universal SYBR Green (Roche, Basel, Switzerland) on a StepOne Plus (Applied Biosystems, Carlsbad, CA) thermocycler.

As for `COc1ccc(N2C(=O)N(c3c(C)cccc3Cl)Cc3cnc(Nc4ccc(C5CCN(C)CC5)cc4OC)nc32)nc1` [YKL-05-099], in the assay on male mice, the “RANKL in bone RNA” value is reported as “RANKL up-regulation” and the “SOST in bone RNA” value was “SOST down-regulation”.

Consider `COc1ccc(N2C(=O)N(c3c(C)cccc3C)Cc3cnc(Nc4ccc(C5CCN(C)CC5)c(OC)c4)nc32)c(OC)c1` [YKL-05-093], for which, in the assay with Ocy454 cells, the RANKL expression entry is “most active in these experiments at reducing SOST and increasing RANKL”; the SOST expression entry was “most active in these experiments at reducing SOST”.
